Test results reported in US11208412B2 (DAEGU-GYEONGBUK MEDICAL INNOVATION FOUNDATION, priority 2017, dated 2021).

Columns and labels:
Assay in all cases: Kinase selectivity, DiscoverX scanMAX Kinase assay panel (% control)
Format in all cases: binding
[1] = target: T1, kinases of the scanMAX Kinase assay panel (Homo sapiens, UniProt O14733); conditions: MKK7; 1 uM
T1 construct: purchased DiscoverX Co. (contract measurement) scanMAX Kinase assay panel
T1 sequence (O14733 1-419): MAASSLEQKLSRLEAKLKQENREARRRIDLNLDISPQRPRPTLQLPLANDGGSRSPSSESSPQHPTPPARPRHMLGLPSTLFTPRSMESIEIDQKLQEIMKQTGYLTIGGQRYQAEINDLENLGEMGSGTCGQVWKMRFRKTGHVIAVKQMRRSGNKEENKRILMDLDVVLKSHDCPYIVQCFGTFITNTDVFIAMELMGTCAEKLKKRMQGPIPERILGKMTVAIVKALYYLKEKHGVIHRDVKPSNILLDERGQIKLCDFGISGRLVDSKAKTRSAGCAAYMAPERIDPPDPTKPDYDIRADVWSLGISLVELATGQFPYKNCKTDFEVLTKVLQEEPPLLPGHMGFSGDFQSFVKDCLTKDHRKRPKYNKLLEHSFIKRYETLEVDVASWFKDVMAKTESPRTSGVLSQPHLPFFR
Outline: (§1)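 Read-out is % control, normalised so a positive-control compound sits at 0% and DMSO at 100%: (test − positive)/(negative − positive)×100. Each kinase received the compound at 1 uM in DMSO. A value below 35% counts as activity.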

[2] = target: T2, kinases of the scanMAX Kinase assay panel (Homo sapiens, UniProt P11309); conditions: PIM1; 1 uM
T2 construct: purchased DiscoverX Co. (contract measurement) scanMAX Kinase assay panel
T2 sequence (P11309 whole entry): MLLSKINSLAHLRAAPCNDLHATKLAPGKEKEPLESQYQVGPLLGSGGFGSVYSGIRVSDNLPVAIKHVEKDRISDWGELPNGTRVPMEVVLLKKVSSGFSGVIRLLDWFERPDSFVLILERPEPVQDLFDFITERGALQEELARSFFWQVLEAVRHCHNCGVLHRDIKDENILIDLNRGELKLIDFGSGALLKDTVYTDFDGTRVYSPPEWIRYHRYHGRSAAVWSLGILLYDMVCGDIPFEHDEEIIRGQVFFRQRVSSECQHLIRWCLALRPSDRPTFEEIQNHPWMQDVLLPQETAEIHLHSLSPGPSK
Outline: as §1

[3] = target: T3, kinases of the scanMAX Kinase assay panel (Homo sapiens, UniProt P12931); conditions: kinase SRC; 1 uM in DMSO
T3 construct: purchased DiscoverX Co. (contract measurement) scanMAX Kinase assay panel
T3 sequence (P12931 whole entry): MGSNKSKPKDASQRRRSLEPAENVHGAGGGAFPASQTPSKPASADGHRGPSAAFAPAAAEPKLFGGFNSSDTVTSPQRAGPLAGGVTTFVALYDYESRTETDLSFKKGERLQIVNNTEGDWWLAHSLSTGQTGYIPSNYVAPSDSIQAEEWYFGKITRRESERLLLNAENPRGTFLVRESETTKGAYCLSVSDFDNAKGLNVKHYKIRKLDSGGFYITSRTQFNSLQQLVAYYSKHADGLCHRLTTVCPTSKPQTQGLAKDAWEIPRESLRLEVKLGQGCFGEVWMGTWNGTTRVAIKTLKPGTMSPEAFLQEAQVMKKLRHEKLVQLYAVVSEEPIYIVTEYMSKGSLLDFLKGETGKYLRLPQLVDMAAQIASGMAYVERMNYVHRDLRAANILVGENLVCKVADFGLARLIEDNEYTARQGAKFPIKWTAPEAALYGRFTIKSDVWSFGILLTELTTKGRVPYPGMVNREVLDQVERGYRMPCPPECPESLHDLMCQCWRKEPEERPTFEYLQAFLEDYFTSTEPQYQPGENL
Outline: as §1

[4] = target: T4, kinases of the scanMAX Kinase assay panel (Homo sapiens, UniProt P16234); conditions: PDGFRA; 1 uM
T4 construct: purchased DiscoverX Co. (contract measurement) scanMAX Kinase assay panel
T4 sequence (P16234 24-1089): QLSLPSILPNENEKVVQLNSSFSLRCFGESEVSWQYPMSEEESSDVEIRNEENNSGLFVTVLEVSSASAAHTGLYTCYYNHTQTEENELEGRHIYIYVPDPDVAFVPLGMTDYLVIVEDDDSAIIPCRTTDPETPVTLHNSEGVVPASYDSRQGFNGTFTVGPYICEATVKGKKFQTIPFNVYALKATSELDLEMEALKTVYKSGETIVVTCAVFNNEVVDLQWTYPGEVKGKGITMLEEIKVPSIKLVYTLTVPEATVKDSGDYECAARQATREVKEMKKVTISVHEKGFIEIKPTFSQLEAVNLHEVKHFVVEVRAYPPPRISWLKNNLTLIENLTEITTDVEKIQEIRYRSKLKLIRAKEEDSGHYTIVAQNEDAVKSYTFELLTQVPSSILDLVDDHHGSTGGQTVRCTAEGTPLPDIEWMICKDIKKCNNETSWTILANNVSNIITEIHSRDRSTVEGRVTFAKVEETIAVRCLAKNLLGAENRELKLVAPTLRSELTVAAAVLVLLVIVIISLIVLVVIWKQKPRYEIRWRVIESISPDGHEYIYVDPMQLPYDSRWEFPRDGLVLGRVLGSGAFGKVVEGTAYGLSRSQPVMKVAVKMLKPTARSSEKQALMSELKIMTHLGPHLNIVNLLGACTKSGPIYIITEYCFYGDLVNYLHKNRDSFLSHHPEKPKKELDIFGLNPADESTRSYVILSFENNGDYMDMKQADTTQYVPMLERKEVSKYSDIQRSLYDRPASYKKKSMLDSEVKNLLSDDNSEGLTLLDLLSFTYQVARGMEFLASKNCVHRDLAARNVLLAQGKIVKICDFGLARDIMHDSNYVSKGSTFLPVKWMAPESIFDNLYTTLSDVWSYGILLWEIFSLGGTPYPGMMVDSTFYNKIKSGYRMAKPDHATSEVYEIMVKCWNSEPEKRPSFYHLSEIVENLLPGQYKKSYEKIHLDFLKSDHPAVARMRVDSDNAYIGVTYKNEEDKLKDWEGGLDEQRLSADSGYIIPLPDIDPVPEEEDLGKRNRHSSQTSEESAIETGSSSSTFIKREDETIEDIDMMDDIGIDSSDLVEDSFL
Outline: as §1

[5] = target: T5, kinases of the scanMAX Kinase assay panel (Homo sapiens, UniProt P35626); conditions: GRK3; 1 uM
T5 construct: purchased DiscoverX Co. (contract measurement) scanMAX Kinase assay panel
T5 sequence (P35626 1-688): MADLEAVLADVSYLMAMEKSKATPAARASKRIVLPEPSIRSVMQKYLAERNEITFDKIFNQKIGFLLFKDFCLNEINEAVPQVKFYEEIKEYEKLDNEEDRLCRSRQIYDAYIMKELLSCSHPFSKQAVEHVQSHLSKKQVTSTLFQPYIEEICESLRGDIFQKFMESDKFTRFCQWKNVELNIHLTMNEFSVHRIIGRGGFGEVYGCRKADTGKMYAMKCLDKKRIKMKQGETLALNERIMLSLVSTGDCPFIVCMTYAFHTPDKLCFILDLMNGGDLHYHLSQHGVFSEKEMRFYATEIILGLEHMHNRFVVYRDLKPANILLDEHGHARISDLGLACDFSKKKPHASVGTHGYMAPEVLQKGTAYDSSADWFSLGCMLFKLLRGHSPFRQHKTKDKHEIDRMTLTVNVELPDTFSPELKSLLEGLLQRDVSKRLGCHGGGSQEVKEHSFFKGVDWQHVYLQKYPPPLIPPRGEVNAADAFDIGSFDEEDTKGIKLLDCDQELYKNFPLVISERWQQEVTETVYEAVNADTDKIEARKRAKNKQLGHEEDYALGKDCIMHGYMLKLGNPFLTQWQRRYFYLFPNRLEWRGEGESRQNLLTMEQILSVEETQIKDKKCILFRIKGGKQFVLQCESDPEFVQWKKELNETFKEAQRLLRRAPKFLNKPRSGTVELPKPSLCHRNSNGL
Outline: as §1

[6] = target: T6, kinases of the scanMAX Kinase assay panel (Homo sapiens, UniProt P36888, D835V); conditions: FLT3(D835V); 1 uM
T6 construct: purchased DiscoverX Co. (contract measurement) scanMAX Kinase assay panel
T6 sequence (P36888 27-993 D835V): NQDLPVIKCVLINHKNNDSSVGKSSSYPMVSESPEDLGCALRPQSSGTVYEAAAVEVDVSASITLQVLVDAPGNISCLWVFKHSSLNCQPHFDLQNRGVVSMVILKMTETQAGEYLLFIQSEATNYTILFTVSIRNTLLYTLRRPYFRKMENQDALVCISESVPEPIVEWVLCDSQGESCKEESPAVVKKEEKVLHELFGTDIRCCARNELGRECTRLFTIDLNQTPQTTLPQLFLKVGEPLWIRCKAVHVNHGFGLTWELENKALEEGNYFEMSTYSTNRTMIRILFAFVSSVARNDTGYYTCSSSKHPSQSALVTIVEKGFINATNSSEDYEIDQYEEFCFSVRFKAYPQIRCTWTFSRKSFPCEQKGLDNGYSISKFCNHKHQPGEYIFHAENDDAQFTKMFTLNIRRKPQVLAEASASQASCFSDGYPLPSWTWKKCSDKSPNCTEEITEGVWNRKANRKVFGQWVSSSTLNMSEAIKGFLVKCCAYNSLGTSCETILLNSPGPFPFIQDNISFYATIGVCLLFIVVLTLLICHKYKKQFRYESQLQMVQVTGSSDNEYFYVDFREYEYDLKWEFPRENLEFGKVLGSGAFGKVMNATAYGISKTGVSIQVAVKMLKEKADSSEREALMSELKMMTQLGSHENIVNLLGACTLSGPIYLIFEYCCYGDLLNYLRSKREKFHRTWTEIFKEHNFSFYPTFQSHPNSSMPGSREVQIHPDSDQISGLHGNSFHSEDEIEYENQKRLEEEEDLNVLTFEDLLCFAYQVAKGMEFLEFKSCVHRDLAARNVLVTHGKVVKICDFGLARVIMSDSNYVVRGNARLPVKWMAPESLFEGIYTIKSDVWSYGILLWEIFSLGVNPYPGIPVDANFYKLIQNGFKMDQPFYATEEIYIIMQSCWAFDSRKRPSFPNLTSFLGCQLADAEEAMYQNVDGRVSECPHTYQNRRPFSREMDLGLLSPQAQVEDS
Outline: as §1

[7] = target: T7, kinases of the scanMAX Kinase assay panel (Homo sapiens, UniProt Q06187); conditions: BTK; 1 uM
T7 construct: purchased DiscoverX Co. (contract measurement) scanMAX Kinase assay panel
T7 sequence (Q06187 whole entry): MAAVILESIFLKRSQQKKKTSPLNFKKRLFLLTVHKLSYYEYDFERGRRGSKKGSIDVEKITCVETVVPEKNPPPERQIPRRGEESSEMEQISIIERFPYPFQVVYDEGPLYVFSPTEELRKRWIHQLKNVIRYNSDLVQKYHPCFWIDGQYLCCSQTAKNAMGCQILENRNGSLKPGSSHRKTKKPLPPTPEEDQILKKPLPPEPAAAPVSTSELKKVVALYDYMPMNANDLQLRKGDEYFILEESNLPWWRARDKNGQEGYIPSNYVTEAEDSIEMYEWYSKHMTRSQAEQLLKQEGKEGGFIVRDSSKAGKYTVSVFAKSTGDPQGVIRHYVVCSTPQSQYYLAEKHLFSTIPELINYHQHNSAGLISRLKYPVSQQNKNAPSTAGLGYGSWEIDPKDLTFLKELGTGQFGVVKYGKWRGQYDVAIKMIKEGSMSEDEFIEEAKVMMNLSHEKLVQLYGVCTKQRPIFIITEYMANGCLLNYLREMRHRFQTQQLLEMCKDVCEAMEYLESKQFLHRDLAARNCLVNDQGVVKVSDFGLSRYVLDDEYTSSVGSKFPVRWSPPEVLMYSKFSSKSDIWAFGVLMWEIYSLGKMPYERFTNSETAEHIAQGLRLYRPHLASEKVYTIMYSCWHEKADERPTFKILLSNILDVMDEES
Outline: as §1

[8] = target: T8, kinases of the scanMAX Kinase assay panel (Homo sapiens, UniProt Q16288); conditions: kinase TRKC; 1 uM in DMSO
T8 construct: purchased DiscoverX Co. (contract measurement) scanMAX Kinase assay panel
T8 sequence (Q16288 32-839): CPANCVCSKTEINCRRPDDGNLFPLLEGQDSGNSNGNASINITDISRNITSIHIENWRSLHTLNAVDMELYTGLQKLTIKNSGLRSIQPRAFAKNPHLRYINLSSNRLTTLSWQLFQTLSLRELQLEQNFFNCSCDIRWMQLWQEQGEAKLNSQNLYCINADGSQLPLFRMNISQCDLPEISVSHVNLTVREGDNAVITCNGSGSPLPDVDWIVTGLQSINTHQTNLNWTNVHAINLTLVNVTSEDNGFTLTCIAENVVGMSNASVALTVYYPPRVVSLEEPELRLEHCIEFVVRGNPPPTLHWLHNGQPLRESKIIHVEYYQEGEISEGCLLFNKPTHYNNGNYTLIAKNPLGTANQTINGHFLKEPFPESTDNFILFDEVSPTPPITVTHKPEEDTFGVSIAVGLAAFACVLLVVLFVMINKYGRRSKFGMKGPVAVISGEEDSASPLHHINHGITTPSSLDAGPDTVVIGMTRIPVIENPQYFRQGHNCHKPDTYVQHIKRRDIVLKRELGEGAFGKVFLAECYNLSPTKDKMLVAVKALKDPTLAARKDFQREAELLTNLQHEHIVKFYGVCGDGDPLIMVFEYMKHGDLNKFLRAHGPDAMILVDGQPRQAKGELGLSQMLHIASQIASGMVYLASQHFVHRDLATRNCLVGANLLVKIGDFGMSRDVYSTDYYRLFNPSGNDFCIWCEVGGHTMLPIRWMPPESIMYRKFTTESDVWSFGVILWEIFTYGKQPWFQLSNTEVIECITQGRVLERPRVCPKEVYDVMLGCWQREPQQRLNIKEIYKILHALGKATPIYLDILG
Outline: as §1

[9] = target: T9, kinases of the scanMAX Kinase assay panel (Homo sapiens, UniProt Q9P1W9); conditions: PIM2; 1 uM
T9 construct: purchased DiscoverX Co. (contract measurement) scanMAX Kinase assay panel
T9 sequence (Q9P1W9 whole entry): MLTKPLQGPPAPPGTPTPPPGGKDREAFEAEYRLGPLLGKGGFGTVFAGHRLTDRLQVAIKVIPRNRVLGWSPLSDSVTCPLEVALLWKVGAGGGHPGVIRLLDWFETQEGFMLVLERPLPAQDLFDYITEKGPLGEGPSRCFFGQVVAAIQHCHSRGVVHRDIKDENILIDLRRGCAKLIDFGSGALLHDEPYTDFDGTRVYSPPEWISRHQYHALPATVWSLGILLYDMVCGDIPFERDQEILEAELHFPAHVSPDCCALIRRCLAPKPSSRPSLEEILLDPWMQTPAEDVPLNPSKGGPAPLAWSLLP
Outline: as §1

Row | SMILES | remaining binding at 1 µM [1] | remaining binding at 1 µM [2] | remaining binding at 1 µM [3] | remaining binding at 1 µM [4] | remaining binding at 1 µM [5] | remaining binding at 1 µM [6] | remaining binding at 1 µM [7] | remaining binding at 1 µM [8] | remaining binding at 1 µM [9]
1 | CNc1nc(Nc2ccc(C(=O)N3CCOCC3)cc2OC)nc2[nH]cc(C#N)c12 [Example 1, 2-((2-methoxy-4-(morpholine-4-carbonyl)phenyl)amino)-4-(methylamino)-7H-pyrrolo[2,3-d]pyrimidine-5-carbonitrile] | 48% | 85% | 90% | 15% | 99% | 58% | 72% | 60% | 78%
2 | CC1(Nc2nc(Nc3cnn([C@H]4CCN(C5COC5)C[C@@H]4F)c3Cl)nc3[nH]cc(C#N)c23)CC1 [Example 52, 2-((5-chloro-1-((3S,4S)-3-fluoro-1-(oxetane-3-yl)piperidine-4-yl)-1H-pyrazole-4-yl)amino)((1-methylcyclopropyl)amino)-7H-pyrrolo[2,3-d]pyrimidine-5-carbonitrile] | 6.1% | 57% | 4.6% | 9.7% | 53% | 0% | 9.1% | 30% | 63%
3 | CCNc1nc(Nc2ccc(C(=O)N3CCC(N4CCOCC4)CC3)cc2OC)nc2[nH]cc(C(F)(F)F)c12 [Example 104, (4-((4-(ethylamino)-5-(trifluoromethyl)-7H-pyrrolo[2,3-d]pyrimidine-2-yl)amino)-3-methoxyphenyl)(4-morpholinopiperidine-1-yl)methanone] | 100% | 80% | 100% | 88% | 97% | 0% | 100% | 100% | 100%
